Tests used:
BALB/c male mice [1] = test: Passive Avoidance of Mice in a Shuttle Chamber, scopolamine or MK-801 (Example 8); type: in vivo; details: scopolamine 0.3 mg/kg or MK-801 0.1 mg/kg
Protocol: Example 7. […] A shuttle chamber (Ugo Basile, Italy) consisted of two sections was used. […] The sections were connected via a hole which could be shut with a vertical door. The floor was made of transverse metal bars on which DC current impulses could be fed. Experiments were carried out on aged male mice of line BALB/c weighing 20-24 grams.
On the first day of the experiment 30 minutes before training the mice were injected intraintestinally with physiological solution of scopolamine (0.3 mg/kg) or scopolamine in combination with antagonists of 5-HT6 receptors 1.2.1(2)HCl, 1.2.1(4)HCl or 1.2.1(5)HCl. Each group consisted of at least 8 animals. The animals were placed in the light section, and the latent period of the first entry into the dark chamber was registered. Then the vertical door was closed and the animal was punished by 0.6 mA DC current for 3 seconds. After that the animal was carried back to its living cell. In 22-24 hours the same animal was placed in the light section of the shuttle chamber once again and the latent period before its entry into the dark section, the total time of its stay in the light section and the number of entries into the dark section were registered. Each observation lasted for 5 minutes.
The experiment was carried out in the same way as in example 7. On the first day 30 minutes before training the mice were injected intra-intestinally with a physiological solution of scopolamine (0.3 mg/kg) or MK-801(0.1 mg/kg).

SHK male mice = test: Recognition of New Objects by Mice Under Scopolamine and MK-801; type: in vivo; details: scopolamine 1 mg/kg and MK-801 0.2 mg/kg
Protocol: The experiments were carried out in a closed cross shaped labyrinth which consisted of 4 peripheral sections connected with the central chamber via a 7×7 cm hole. The labyrinth was made of black plastic and its sections were of 14×14×14 cm size. The top cover of the labyrinth was transparent.
A mouse was placed in the central section of the labyrinth and allowed to investigate the environment. A mouse was considered to have entered a section once all of its four paws were inside the chamber. A test was considered to be completed when the mouse had moved 12 times between the sections, having made a total of 13 visits. The floor of the labyrinth was cleaned after each animal.
With each mouse the test was carried out twice with 1 hour interval.
During the first test, each section of the labyrinth contained a circular plastic cup of 3 cm height and 7 cm diameter. During the second test the cover in each of the two opposing sections was replaced by a conical glass bulb of 7 cm height and 4 cm across the bottom. The time that the mice spent in each section of the labyrinth was registered and the index of new object recognition was calculated as the ratio of the time spent in the sections with the bulbs to the time spent in all sections of the labyrinth. If no preference is given to the sections with new objects the index is 0.5.
When new objects appear the mice spend more time in the section containing them that results in an increased recognition index. Scopolamine (1 mg/kg) and MK-801 (0.2 mg/kg) disturbed learning (memory) that leads to lowering of the recognition index.

BALB/c male mice [2] = test: Passive Avoidance of Mice in a Shuttle Chamber, memory disturbed by scopolamine (Example 7); type: in vivo; details: scopolamine 0.3 mg/kg, injected 30 minutes before training
Protocol: Example 7. […] A shuttle chamber (Ugo Basile, Italy) consisted of two sections was used. […] The sections were connected via a hole which could be shut with a vertical door. The floor was made of transverse metal bars on which DC current impulses could be fed. Experiments were carried out on aged male mice of line BALB/c weighing 20-24 grams. […] Each group consisted of at least 8 animals. The animals were placed in the light section, and the latent period of the first entry into the dark chamber was registered. Then the vertical door was closed and the animal was punished by 0.6 mA DC current for 3 seconds. After that the animal was carried back to its living cell. In 22-24 hours the same animal was placed in the light section of the shuttle chamber once again and the latent period before its entry into the dark section, the total time of its stay in the light section and the number of entries into the dark section were registered. Each observation lasted for 5 minutes. The experiment was carried out during the day time in an isolated laboratory using white noise at a level of about 70 decibel above the human hearing threshold. Scopolamine causes the disturbance of training (memory loss) which results in […]. The fact that 5-HT6 receptor antagonists can improve the learning ability that has been disturbed by scopolamine is regarded as evidence for their nootropic effect.

BALB/c male mice [3] = test: Training Mice in the Morris Water labyrinth, scopolamine; type: in vivo; details: scopolamine 0.6 mg/kg; 1.2.1(5)HCl 0.1 mg/kg, 1.2.1(1)HCl 1 mg/kg, tacrine 3 mg/kg
Protocol: A circular pool of 100 cm diameter and of 30 cm sides was used. It was filled with water at 20-22° C. A circular ceramic platform of 14 cm height was placed in the pool. The behavior of the animals was registered using an automated computer video system in addition with software package of movement analyzer Any-maze (Stoelting Colo., US). The experiments were carried out on aged male mice of BALB/c line weighing 20-24 grams. Before the experiments mice fit for learning were selected. This was done by placing the platform 1 cm above the water level and putting an animal on the platform for 20 seconds. Then the mouse was put in the water on the opposite side of the pool and allowed to find the platform and climb onto it for 60 seconds, where it was left for additional 20 seconds. After that the mouse was repeatedly immersed in the water on the opposite side of the pool and allowed to search for the platform. If it failed in finding the platform within 60 seconds the experimentator helped it to find the platform and climb onto it. If the mice couldn't find the platform itself in two consecutive attempts it was excluded from the experiment. During the next two days the platform was placed 0.5 centimeters lower the water level. Every day the mice were given four attempts for finding the platform within 60 seconds. The time interval between the attempts was 20 seconds, during which the mice stayed on the platform. Every day before the first attempt the mice was placed on the platform for 20 seconds. The time needed for finding and climbing the platform was registered. The animals were sunk in water in two different places on the side of the pool opposite to the platform. […] The animals of the control group were injected with physiological solution. At least 8 animals were used in each group. On the third day the platform was removed and each animal was placed in the pool once for a period of 60 seconds. The time each mouse spent in the area where the platform had been located during the previous days was registered. […]

[4] = system: calcium canals regulated by the intracellular calcium depot; test: Histamine-induced calcium stream in SK-N-SH cells, Phase 2 (lowering of intracellular calcium concentration); type: cell-based; details: Homo sapiens, 10 μM histamine, Fura 2 AM, Phase 2: discharge of intraplasmatic calcium
BALB/c male mice [5] = test: Mice Behavior an Elevated Cross Shaped Labyrinth; type: in vivo; details: preference index for open sections, number of defecations
Description: The length of each section in the labyrinth is 30 cm, the width is 5 cm, the height of the walls is 15 cm. Two opposite sections are closed by transparent walls on the sides and on the butt ends, the other two sections are lit and opened. A mouse was placed in the center of the labyrinth and for the next five minutes the number of entries the open and closed sections and the time spent in each type of section was registered. […] The animals usually avoid the open sections (the preference index is between 0.2 and 0.3).

SMILES | nootropic action (passive avoidance, FIGS. 5-10) (BALB/c male mice [1]) | nootropic action (new object recognition, FIG. 13-14) (SHK male mice) | nootropic action (passive avoidance, FIGS. 2-4) (BALB/c male mice [2]) | improvement of mice's training (Morris water labyrinth, FIGS. 11-12) (BALB/c male mice [3]) | EC50 [4] [µM] | tranquilizing action (elevated cross shaped labyrinth, figure 19-21) (BALB/c male mice [5])
Cc1ccc2c(c1)c1c(n2CCc2ccc(C)nc2)CCN(C)C1.Cl [1.2.1(5)HCl, 2,8-dimethyl-5-[2-(6-methylpyridin-3-yl)ethyl]-2,3,4,5-tetrahydro-1H-pyrido[4,3-b]indole hydrochloride] | exhibit a nootropic action | nootropic action | exhibit a nootropic action | statistically significant improvement of mice's training | 1.58 | exhibit a tranquilizing action
Nc1c2c(nc3ccccc13)CCCC2 [tacrine] | – | – | – | statistically significant improvement of mice's training | – | –
Cc1ccc2c(c1)c1c(n2CCc2ccccc2)CCN(C)C1.Cl [1.2.1(1)HCl, 2,8-dimethyl-5-(2-phenylethyl)-2,3,4,5-tetrahydro-1H-pyrido[4,3-b]indole hydrochloride] | highest activity | nootropic action, the level of which is the most prominent | – | statistically significant improvement of mice's training | 0.15 | exhibit a tranquilizing action, which is the most prominent
O=C1CC2(CCCC2)CC(=O)N1CCCCN1CCN(c2ncccn2)CC1 [Buspiron] | – | – | – | – | – | exhibit a tranquilizing action

— US20190233409A1, “SUBSTITUTED 2,3,4,5-TETRAHYDRO-1H-PYRIDO[4,3-B]INDOLES, METHODS FOR USE THEREOF” (priority 2017, published 2019)
